Results reported in patent US8470855B2, “Dual-use peptidase inhibitors as prodrugs for a therapy of inflammatory and other diseases” (IMTM GmbH, priority 2005, dated 2013).

Experiments:
[1] = target: T1, Dipeptidyl peptidase IV (EC 3.4.14.5.) (Sus scrofa, UniProt P22411); assay: IC50 determination against DP IV after reduction of the prodrugs with DTT; format: biochemical; conditions: after release (reduction with DTT) of the inhibitors from the prodrugs; pig kidney enzyme, substrate Ala-Pro-AMC, pH 7.6, 30° C.; read-out: DP IV (IC 50 [M])
T1 construct: purchased Sigma; host or cells: pig kidney (tissue-derived)
Procedure: (§1) Process of the Reduction with DTT:
(§2) Same volumes of the 7·10^−2 M solution of the inhibitor in water or DMF and a 0.35 M aqueous DTT-solution (5 equivalents) were agitated 4 hours at RT.
(§3) Subsequently to the reductive treatment of the prodrugs the IC50-values were estimated using the following process:
(§4) Determination of the IC50-Values after Reduction:
Dipeptidyl peptidase IV from pig kidney (EC 3.4.14.5.), lyophilisated powder (Sigma).
Substrate: Ala-Pro-AMC, [S]=3·10^−5 M (2 Km) in the reaction batch.
Buffer: 40 mM Tris/HCl-buffer, pH 7.6, I=0.125 in the reaction batch.
By dilution with water 10 to 12 solutions with defined inhibitor concentration were prepared from the reduction batch. These were selected from a relevant concentration range, i.e. between complete inhibition and non-influenced enzyme activity.
60 μl of these inhibitor solutions each or water (standard), were incubated with 80 μl of the according diluted enzymes in buffer for 15 minutes at 30° C. and subsequently 60 μl of the according AMC-substrate in water (total volume 200 μl) were added. The release of the 7-Amino-4-methyl-cumarin was traced continuously over a period of 20 minutes at 30° C. using a fluorence-pladt-reader NOVOstar (BMG Labtechnologies). The enzyme concentration was chosen to give a linear increase of the fluorescence during the measuring period. […]

[2] = target: T2, APN (Leucin aminopeptidase, microsomal, EC 3.4.11.2) (Sus scrofa, UniProt P15145); assay: IC50 determination against APN after reduction of the prodrugs with DTT; format: biochemical; conditions: after release (reduction with DTT) of the inhibitors from the prodrugs; pig kidney enzyme, substrate Leu-AMC, pH 7.2, 30° C.; read-out: APN (IC 50 [M])
T2 construct: purchased Sigma; host or cells: pig kidney (tissue-derived)
T2 sequence (P15145 1-963): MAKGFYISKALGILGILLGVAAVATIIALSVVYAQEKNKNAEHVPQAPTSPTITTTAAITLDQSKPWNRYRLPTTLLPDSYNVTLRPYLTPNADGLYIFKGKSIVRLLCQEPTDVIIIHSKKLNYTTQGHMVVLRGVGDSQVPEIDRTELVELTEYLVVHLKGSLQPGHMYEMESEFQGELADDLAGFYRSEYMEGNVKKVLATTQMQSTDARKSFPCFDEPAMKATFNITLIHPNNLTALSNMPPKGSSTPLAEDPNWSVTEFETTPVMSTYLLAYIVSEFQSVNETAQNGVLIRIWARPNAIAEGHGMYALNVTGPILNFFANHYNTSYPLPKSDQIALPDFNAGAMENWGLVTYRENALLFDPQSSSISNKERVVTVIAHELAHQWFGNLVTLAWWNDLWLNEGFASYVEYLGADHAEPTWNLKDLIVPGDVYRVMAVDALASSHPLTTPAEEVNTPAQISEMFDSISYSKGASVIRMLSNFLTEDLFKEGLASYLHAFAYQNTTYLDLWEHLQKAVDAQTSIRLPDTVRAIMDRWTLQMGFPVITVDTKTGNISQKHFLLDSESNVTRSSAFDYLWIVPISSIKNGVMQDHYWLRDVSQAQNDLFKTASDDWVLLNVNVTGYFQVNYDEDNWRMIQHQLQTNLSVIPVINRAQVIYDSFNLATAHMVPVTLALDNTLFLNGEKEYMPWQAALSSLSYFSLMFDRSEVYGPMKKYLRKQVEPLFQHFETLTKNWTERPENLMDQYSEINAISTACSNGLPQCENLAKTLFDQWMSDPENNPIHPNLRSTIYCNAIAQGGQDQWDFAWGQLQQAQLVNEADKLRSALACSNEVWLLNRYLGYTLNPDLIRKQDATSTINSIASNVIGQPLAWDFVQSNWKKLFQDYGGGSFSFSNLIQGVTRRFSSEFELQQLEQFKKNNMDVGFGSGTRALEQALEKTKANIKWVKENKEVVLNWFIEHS
Procedure: as §1, §2, §3, §4
Leucin aminopeptidase, microsomal, from pig kidney (EC 3.4.11.2).
Suspension in 3.5 M (NH4)2SO4-solution (Sigma).
Substrate: Leu-AMC, [S]=1.5·10^−4 M (2 Km) in the reaction batch.
Buffer: 40 mM Tris/HCl-buffer, pH 7.2 in the reaction batch. […]
60 μl of these inhibitor solutions each or water (standard), were incubated with 80 μl of the according diluted enzymes in buffer for 15 minutes at 30° C. and subsequently 60 μl of the according AMC-substrate in water (total volume 200 μl) were added. The release of the 7-Amino-4-methyl-cumarin was traced continuously over a period of 20 minutes at 30° C. using a fluorence-pladt-reader NOVOstar (BMG Labtechnologies). The enzyme concentration was chosen to give a linear increase of the fluorescence during the measuring period.
The excitation- and emission-wavelengths, respectively, were 390 and 460 nm. […] The turn-over rates (increase of fluorescence/minutes) were plotted against the concentration of the inhibitor and the IC50-values were calculated using the computer program GraFit. […]

T1 sequence (P22411 whole entry): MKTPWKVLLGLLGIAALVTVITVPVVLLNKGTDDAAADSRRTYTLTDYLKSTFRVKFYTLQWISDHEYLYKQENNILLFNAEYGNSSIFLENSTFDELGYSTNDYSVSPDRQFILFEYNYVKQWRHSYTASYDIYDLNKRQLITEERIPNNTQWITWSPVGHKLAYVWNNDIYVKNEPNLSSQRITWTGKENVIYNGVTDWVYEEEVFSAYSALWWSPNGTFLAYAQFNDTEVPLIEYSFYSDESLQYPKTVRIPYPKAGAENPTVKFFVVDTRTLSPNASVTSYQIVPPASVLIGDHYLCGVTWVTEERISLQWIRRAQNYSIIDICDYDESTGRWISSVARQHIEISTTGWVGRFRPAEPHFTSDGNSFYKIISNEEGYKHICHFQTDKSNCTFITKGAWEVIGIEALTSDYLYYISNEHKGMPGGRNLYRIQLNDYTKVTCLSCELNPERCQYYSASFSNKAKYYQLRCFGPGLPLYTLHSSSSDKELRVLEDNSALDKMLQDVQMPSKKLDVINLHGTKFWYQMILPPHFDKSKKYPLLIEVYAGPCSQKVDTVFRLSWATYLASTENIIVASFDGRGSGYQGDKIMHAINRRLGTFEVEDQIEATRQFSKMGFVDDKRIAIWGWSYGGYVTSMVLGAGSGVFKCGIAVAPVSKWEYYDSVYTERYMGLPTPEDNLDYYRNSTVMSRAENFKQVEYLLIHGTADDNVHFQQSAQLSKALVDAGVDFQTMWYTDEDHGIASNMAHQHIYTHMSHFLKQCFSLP

| IC50 [2] [M] | SMILES | IC50 [1] [M] |
| --- | --- | --- |
| – | NC(CCCCNC(=O)OCc1ccc([N+](=O)[O-])cc1)C(=O)N1CCSC1 (centres unmarked) [Lys[Z(NO2)]-thiazolidide, H-Lys[Z(NO2)]-thiazolidide] | 4.34e-07 |
| 3.02e-07 | CCCCC[C@H](CC(=O)NO)C(=O)N[C@H](C(=O)N1CCC[C@H]1CO)C(C)C [Actinonine, actinonine] | – |
